Experiment in all cases: NCI tumour cell line growth inhibition, 48 h
For assay [1], the system named is A498.
For assay [2], the system named is SN12C.
The subject of assay [3] is U-251.
The test system of assay [4] is UO-31.
Assay [5] concerns MDA-MB-231.
The test system of assay [6] is SF-539.
Assay [7] concerns SK-OV-3.
Assay [8] concerns CAKI-1.
For assay [9], the system named is IGROV-1.
Assay [10] relates to 786-0.
The subject of assay [11] is OVCAR-3.
For assay [12], the system named is HL-60.
In assay [13] the test system is RXF 393.
In assay [14] the test system is DU-145.
The subject of assay [15] is SF-295.
In assay [16] the test system is RPMI-8226.
Assay [17] concerns ACHN.
Assay [18] has as its system HCC 2998.
Assay [19] concerns Malme-3M.
Assay [20] relates to UACC-62.

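Exposure lasted 48 hours, with cells grown in 96-well plates and compounds tested at five concentrations. Abbreviation: GI50, concentration required for 50% inhibition of growth.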 The source made the active and inactive calls. No stated cut-off is given here; in the data, active = GI50 up to about 1.1 µM and inactive = higher.

For the compound `O=C(O)c1cc(C(=O)O)nc(C(=O)O)c1`, the GI50 in assay [1], in assay [2], in assay [3], in [4], in assay [5] and in assay [6] was > 100 µM (inactive) in each case. Besides, the GI50 in assay [7], in [8], in [9], in assay [10], in assay [11] and in [12] was > 100 µM (inactive) in each case. Further, the GI50 in assay [13], in assay [14], in assay [15], in assay [16], in assay [17] and in assay [18] was > 100 µM (inactive) throughout. The GI50 in [19] and in assay [20] was > 100 µM (inactive) throughout.
Consider `Nc1nc2c(C(=O)NCc3cccs3)nnn2c2cccc(Cl)c12`, for which the GI50 in assay [1] is > 100 µM (inactive); in assay [2] it was > 100 µM (inactive); in assay [3] it was > 100 µM (inactive); in assay [4], 87.5 µM (inactive); in assay [5] it was 60.1 µM (inactive); in assay [6] it was 77.3 µM (inactive). The GI50 in assay [7], in assay [8], in [9], in assay [10], in [11] and in assay [12] was > 100 µM (inactive) throughout. Also, the GI50 is 59.4 µM (inactive) in [13]; > 100 µM (inactive) in assay [14]; > 100 µM (inactive) in assay [15]; 39.7 µM (inactive) in assay [16]; > 100 µM (inactive) in assay [17]; 30.5 µM (inactive) in assay [18]. In addition, the GI50 in assay [19] and in assay [20] was > 100 µM (inactive) each time.
For `CC[P+](c1ccccc1)(N(C)C)N(C)C`, the GI50 in assay [1] was > 100 µM (inactive); in assay [2], > 100 µM (inactive); in assay [3], 53.8 µM (inactive); in assay [4], > 100 µM (inactive); in assay [5], > 100 µM (inactive); in assay [6], > 100 µM (inactive). The GI50 in [7], in [8], in [9], in assay [10], in [11] and in [12] was > 100 µM (inactive) throughout. In addition, the GI50 in assay [13] was > 100 µM (inactive); in assay [14] it was > 100 µM (inactive); in [15], > 100 µM (inactive); in [16], 71.9 µM (inactive); in assay [17], > 100 µM (inactive); in assay [18] it was > 100 µM (inactive). The GI50 in assay [19] and in [20] was > 100 µM (inactive) each time.
With `COc1c(O)c2ccccc2c2cc(O)ccc12`, the GI50 in [1] is 8.45 µM (inactive); in assay [2] it was 5.2 µM (inactive); in assay [3], 5.22 µM (inactive); in assay [4] it was 4.04 µM (inactive); in assay [5], 3.91 µM (inactive); in assay [6], 3.69 µM (inactive). Moreover, the GI50 is 20.5 µM (inactive) in [7]; 11.2 µM (inactive) in [8]; 9.57 µM (inactive) in [9]; 12.2 µM (inactive) in [10]; 8.81 µM (inactive) in [11]; 2.86 µM (inactive) in assay [12]. In addition, the GI50 in assay [13] is 9.93 µM (inactive); in assay [14], 8.22 µM (inactive); in assay [15], 10 µM (inactive); in [16] it was 7.21 µM (inactive); in [17] it was 3.55 µM (inactive); in assay [18] it was 17.3 µM (inactive). For the same compound, the GI50 in assay [19] was 1.66 µM (inactive); in [20], 2.67 µM (inactive).
Turning to `CCOC(=O)Cc1nc2nn(Cc3ccccc3)cc2c(=O)[nH]1`, the GI50 in assay [1] was 19.3 µM (inactive); in assay [2], > 100 µM (inactive); in assay [3] it was > 100 µM (inactive); in assay [4], > 100 µM (inactive); in assay [5], > 100 µM (inactive); in assay [6] it was > 100 µM (inactive). Also, the GI50 in [7], in [8], in assay [9], in assay [10], in assay [11] and in assay [12] was > 100 µM (inactive) throughout. Also, the GI50 in [13], in assay [14], in assay [15], in assay [16], in [17] and in assay [18] was > 100 µM (inactive) each time. Also, the GI50 in assay [19] and in [20] was > 100 µM (inactive) in each case.
For the compound `Cc1ccc(S(=O)(=O)Oc2nc3nc4ccccc4nc3nc2OS(=O)(=O)c2ccc(C)cc2)cc1`, the GI50 in assay [1] was > 100 µM (inactive); in assay [2] it was > 100 µM (inactive); in [3], > 100 µM (inactive); in assay [4], 53.7 µM (inactive); in assay [5] it was > 100 µM (inactive); in assay [6], > 100 µM (inactive). For the same compound, the GI50 is > 100 µM (inactive) in assay [7]; > 100 µM (inactive) in assay [8]; > 100 µM (inactive) in assay [9]; > 100 µM (inactive) in assay [10]; > 100 µM (inactive) in assay [11]; > 10 µM (inactive) in assay [12]. For the same compound, the GI50 in assay [13], in assay [14], in [15], in [16], in assay [17] and in [18] was > 100 µM (inactive) each time. The GI50 in assay [19] and in assay [20] was > 100 µM (inactive) throughout.
For `O=C(N/N=C/c1c(-c2ccccc2)no[n+]1[O-])N1CCOCC1`, the GI50 in assay [1], in assay [2], in assay [3], in assay [4], in assay [5] and in [6] was > 100 µM (inactive) each time. Further, the GI50 in assay [7] is > 100 µM (inactive); in assay [8], > 100 µM (inactive); in assay [9], > 100 µM (inactive); in [10] it was > 100 µM (inactive); in assay [11] it was > 100 µM (inactive); in [12] it was 23.3 µM (inactive). The GI50 in [13], in assay [14], in [15], in assay [16], in assay [17] and in [18] was > 100 µM (inactive) each time. For the same compound, the GI50 in assay [19] and in assay [20] was > 100 µM (inactive) throughout.
Consider `C=CCn1c(=O)c2ccccc2[n+]2c(-c3cccc([N+](=O)[O-])c3)csc12`, for which the GI50 in assay [1] is 31.6 µM (inactive); in assay [2], > 100 µM (inactive); in [3], 77.4 µM (inactive); in assay [4] it was 28.6 µM (inactive); in assay [5], 87.3 µM (inactive); in assay [6], 96.8 µM (inactive). Further, the GI50 in [7] was 68.1 µM (inactive); in assay [8], 97.3 µM (inactive); in assay [9], 50.5 µM (inactive); in [10], 48.9 µM (inactive); in [11], 33.9 µM (inactive); in [12] it was 25.9 µM (inactive). For the same compound, the GI50 in [13] is 37.2 µM (inactive); in assay [14] it was 50.4 µM (inactive); in assay [15] it was 53.1 µM (inactive); in assay [16] it was 30.7 µM (inactive); in assay [17], > 100 µM (inactive); in assay [18], > 100 µM (inactive). Besides, the GI50 in [19] was > 100 µM (inactive); in assay [20], 31.6 µM (inactive).
As for `O=c1cc(-c2ccccc2)[nH]c2ccc(N3CCOCC3)cc12`, the GI50 in assay [1] is 0.0413 µM (active); in [2], 0.0467 µM (active); in assay [3], 0.0185 µM (active); in assay [4], 13.2 µM (inactive); in [5] it was 0.0618 µM (active); in assay [6] it was < 0.0149 µM (active). The GI50 is 0.0327 µM (active) in [7]; 0.0291 µM (active) in [8]; 0.0518 µM (active) in [9]; 0.0363 µM (active) in assay [10]; 0.0148 µM (active) in assay [11]; 0.0151 µM (active) in assay [12]. Also, the GI50 in assay [13] is 0.04 µM (active); in [14], 0.038 µM (active); in assay [15], 0.0236 µM (active); in [16], 0.065 µM (active); in assay [17], 0.0611 µM (active); in assay [18] it was 0.0468 µM (active). Moreover, the GI50 in assay [19] is 14 µM (inactive); in assay [20], < 0.0268 µM (active).
Turning to `CN(C)CCCc1c[nH]c2ccccc12`, the GI50 in assay [1], in [2], in assay [3], in assay [4], in [5] and in [6] was > 100 µM (inactive) in each case. For the same compound, the GI50 in [7], in assay [8], in [9], in assay [10], in [11] and in assay [12] was > 100 µM (inactive) throughout. The GI50 in [13], in assay [14], in assay [15], in [16], in assay [17] and in assay [18] was > 100 µM (inactive) each time. Also, the GI50 in [19] and in assay [20] was > 100 µM (inactive) throughout.

These data come from ChEMBL document CHEMBL1201862, “PubChem BioAssay data set” (2004).
